Measured values taken from ChEMBL document CHEMBL1129109, “Synthesis of cystamidin a (pyrrole-3-propanamide), a reported calpain inhibitor” (Bioorg Med Chem Lett, 1996).
pIC50: −log10 of the molar value.

Target: T1, Calpain-1 catalytic subunit (Homo sapiens, UniProt P07384)
T1 sequence (P07384 whole entry): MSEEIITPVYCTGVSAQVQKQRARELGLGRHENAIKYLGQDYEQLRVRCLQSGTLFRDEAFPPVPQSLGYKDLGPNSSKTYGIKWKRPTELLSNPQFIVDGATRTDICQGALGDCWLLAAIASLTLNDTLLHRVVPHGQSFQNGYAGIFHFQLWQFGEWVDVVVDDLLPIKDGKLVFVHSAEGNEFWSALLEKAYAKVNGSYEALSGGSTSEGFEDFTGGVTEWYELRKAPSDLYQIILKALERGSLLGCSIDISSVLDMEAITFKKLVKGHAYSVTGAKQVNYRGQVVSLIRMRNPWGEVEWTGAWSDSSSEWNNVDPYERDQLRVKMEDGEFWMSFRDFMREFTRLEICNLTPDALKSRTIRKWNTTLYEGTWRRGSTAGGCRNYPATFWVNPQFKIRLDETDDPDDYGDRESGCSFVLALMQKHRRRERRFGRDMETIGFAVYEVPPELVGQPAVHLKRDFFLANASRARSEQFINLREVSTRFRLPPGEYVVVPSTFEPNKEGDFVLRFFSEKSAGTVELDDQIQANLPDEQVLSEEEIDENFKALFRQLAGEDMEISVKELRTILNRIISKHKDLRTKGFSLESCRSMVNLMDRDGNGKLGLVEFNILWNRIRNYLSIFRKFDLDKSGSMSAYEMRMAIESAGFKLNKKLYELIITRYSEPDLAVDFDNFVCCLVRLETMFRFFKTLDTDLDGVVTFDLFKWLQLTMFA
Assay: Inhibitory activity against calpain

## NC(=O)CCc1cc[nH]c1
  pIC50: 5.85
